US20230135108A1, “C[…] COMPOUNDS AND METHODS OF MAKING SAME” (Canopy Growth Corporation, priority 2020, published 2023)
Where a name gives a salt, the structure may show the parent alone.

Assays:
[1] = Simulated gastric fluid (SGF) assay; format: in vitro ADME; details: pH 1.2-1.5, pepsin, 37° C.; for half-life at 10 µM: simulated gastric fluid with pepsin, read-out: half-life in a gastric environment (SGF)
Experimental: In a microcentrifuge tube, 626.5 μL of a solution containing 1.1× assay buffer (37.6 mM NaCI, pH 1.2-1.5) was diluted with 70 μL of a 10× pepsin solution (80,000 U/mL in milliQ water). […] The sample was incubated under the same conditions. At the specified time points, 150 μL aliquots of the sample were transferred to microcentrifuge tubes containing 24 μL of quenching solution (0.5 M NaHCO3). After vortexing for 5 seconds, 348 μL of protein precipitation solution containing an internal standard (25 μM Glyburide, ACN) was added. The tube was vortexed again for 20 seconds and stored in ice. Finally, the tubes were centrifuged at 5,000×g and 4° C. for 15 min. The percentage remaining CBDA or CBDA-arginine salt, respectively, compared to time zero, was quantified in the supernatant by HPLC/LC-MS or LC-MS/MS.

[2] = Solubility in water (HPLC of filtrate); format: physicochemical; details: 50 mg in 8 mL deionized water, 0.45 micron filter, FIG. 7
Experimental: In a test tube, 50 mg of the respective cannabinoid salt compound was suspended in 8 mL of deionized water and vortexed. The solution was filtered with a syringe equipped with 0.45 micron filter. HPLC was used to determine the quantity of dissolved cannabinoids.

Row | Compound | half-life at 10 µM [1] | solubility in water [2] | half-life in a gastric environment (SGF) [1]
1 | C=C(C)[C@@H]1CCC(C)=C[C@H]1c1c(O)cc(CCCCC)c(C(=O)O)c1O [CBDA, cannabidiolic acid] | ~19.7 min |  | 
2 | CCCCCc1cc2c(c(O)c1C(=O)O)[C@@H]1C=C(C)CC[C@H]1C(C)(C)O2 [THCA-arginine salt] | ~14.4 min |  | 
3 | CCCCCc1cc2c(c(O)c1C(=O)O)[C@@H]1C=C(C)CC[C@H]1C(C)(C)O2 [THCA, tetrahydrocannabinolic acid] |  | virtually insoluble | about 12.2 min
4 | C1CCC(NC2CCCCC2)CC1.CCCCCc1cc2c(c(O)c1C(=O)O)C1C=C(C)CCC1C(C)(C)O2 (centres unmarked) [THCA-DCHA salt] |  | virtually insoluble | 
